Assay results: patent US20210246157A1, “CAMPTOTHECIN DERIVATIVES AND PREPARATION METHODS AND APPLICATIONS THEREOF” (priority 2018, published 2021)

Legend:
Experiment in all cases: Cytotoxicity test (MTT, 72 h)
HCT-116 = conditions: Homo sapiens, HCT-116, 72 h, read-out: 50% Inhibiting Concentration value (IC50)
Method: (§1) In order to investigate the antitumor activities of the compounds, a variety of tumor cell lines for test are selected. Cells at logarithmic growth period are inoculated in a 96-well plate overnight, then drugs with a certain gradient concentrations are added, and incubation is carried out in a cell culture chamber (5% CO2, 37° C.) for 72 h.

A549 = conditions: Homo sapiens, A549, 72 h, read-out: 50% Inhibiting Concentration value (IC50)
Method: as §1

BGC-823 = conditions: Homo sapiens, BGC-823, 72 h, read-out: 50% Inhibiting Concentration value (IC50)
Method: as §1

ECA-109 = conditions: Homo sapiens, ECa-109, 72 h, read-out: 50% Inhibiting Concentration value (IC50)
Method: as §1

MDA-MB-231 = conditions: Homo sapiens, MDA-MB-231, 72 h, read-out: 50% Inhibiting Concentration value (IC50)
Method: as §1

Hela = conditions: Homo sapiens, read-out: 50% Inhibiting Concentration value (IC50)
Method: as §1

SKOV-3 = conditions: Homo sapiens, SK-OV-3, 72 h, read-out: 50% Inhibiting Concentration value (IC50)
Method: Cells at logarithmic growth period are inoculated in a 96-well plate overnight, then drugs with a certain gradient concentrations are added, and incubation is carried out in a cell culture chamber (5% CO2, 37° C.) for 72 h.

| Compound | IC50 (HCT-116) [nM] | IC50 (A549) [nM] | IC50 (BGC-823) [nM] | IC50 (ECA-109) [nM] | IC50 (MDA-MB-231) [nM] | IC50 (Hela) [nM] | IC50 (SKOV-3) [nM] |
| --- | --- | --- | --- | --- | --- | --- | --- |
| CCc1c2c(nc3ccc(OC(=O)NCCOCc4cn(CCO[C@H]5O[C@@H](CO)[C@H](O)[C@@H](O)[C@@H]5O)nn4)cc13)-c1cc3c(c(=O)n1C2)COC(=O)[C@]3(O)CC [Compound 67] | 235 | 2420 | 209 | 4320 | 876 | 2910 | 1260 |
| CCc1c2c(nc3ccc(OC(=O)OCCOCCOCCOCc4cn(CCO[C@H]5O[C@@H](CO)[C@H](O)[C@@H](O)[C@@H]5O)nn4)cc13)-c1cc3c(c(=O)n1C2)COC(=O)[C@]3(O)CC [Compound 58] | 2000 | 3040 | 212 | 4380 | 521 | 3650 | 750 |
